Reference: patent US5770688A, “Method and composition for the treatment of mammalian HIV infection” (GSF-Forschungszentrum fur Umwelt und Gesundheit GmbH, priority 1989, dated 1998)

Key:
[1] = system: HIV; assay: HIV release from chronically infected cells (Biomek 1000); assay type: cell-based; conditions: for inhibition of viral cell (HIV) release from infected cells, in words: FIGS. 6-19; for overall effect, in words: FIGS. 20-29
Excerpt: (§1) A series of experiments and which are illustrated graphically in FIGS. 6 through 34, respectively, were designed to detect two extremes. In particular the tests were designed to detect the inhibition of viral release and/or the release of virus which has a reduced ability to infect other cells. This reduced ability to infect other cells is represented, for example, by glycosylation inhibitors, the direct effect on virus release is represented by acylation inhibitors, RT inhibitors and melittin (Seq. ID NO:1). The most important feature of this experimental design, however, is to detect the toxicity of melittin. The present experiments were carried out on both the astrocytoma cell line LC5-HIV (cloned infected cells) and T-lymphocytoma cell line KE37-1/IIIβ (cloned infected cells with HTLV-IIIβ). In both cases the results were essentially identical.
(§2) In the present series of experiments HIV release was tested by a fully automated laboratory robot system and which is manufactured by Beckman Instruments as the Biomek 1000. This system performed the following steps. First, chronically infected cells (cloned) are plated in microtiter plates and grown for a period of seven days. They are then challenged by melittin (Seq. ID NO:1) during this period either for the final day or throughout the period as shown in the figures. The number of living cells are quantified by MTT, that is by a metabolic (dehydrogenase) test. The MTT test is automatically performed. The toxic effect is detected at the time of the experiment and not in a separate control experiment. Furthermore, the supernatant, and which contains released virus cells from the period of time which elapsed from the last wash, and which may vary from 24 hours to 7 days, is collected from the culture, and an aliquot is saved for virus quantification by employing antigen or viral enzyme reverse transcriptase (RT). Furthermore, an aliquot is added to a culture of uninfected cells in microtiter plates for subsequent measurement of the ability of the virus cells to reinfect these uninfected cells. In this regard, the number of infected cells is automatically quantified by an immunoperoxidase staining technique. The test results, as shown, are expressed in terms of toxicity of the melittin (MTT test); the release of HIV from the primary culture (RT test); and the ability of the released virus to infect previously uninfected cells.

[2] = system: HIV-infected LC5 cells; assay: MTT toxicity/killing of HIV infected cells (Biomek 1000); assay type: cell-based, human
Experimental: The KE37-1 (uninfected) and KE37-1/111β (infected) cell lines discussed below are commercially available from the Dr. Robert Gallows Laboratory of the NIH in the United States of America and grown in a medium of RPMI 1640 (GIBCO) and further supplemented with 10% fetal calf serum which contained approximately 100 units of penicillin, 100 μg streptomycin, and approximately 0.25 μg fungizone (Amphotericin B) per milliliter. The human mesenchymal cell lines LC5 and LC5-HIV, discussed below, are deposited with the Collection De L'Institut Pasteur of Paris, France on Mar. 9, 1989 and given the accession numbers I-842 and I-843, respectively. The LC5 and LC5-HIV cell lines were grown in a medium of RPMI 1640 and supplemented with 10% fetal calf serum.
as §1, §2

[3] = system: Rausher leukemia virus; conditions: 2 weeks
Experimental: The size of the spleen is taken as a measure of the progress of the disease which eventually leads to the death of the infected animals.
The test of the antiviral effect of the melittin (Seq. ID NO:1) principle was carried out on Balb C mice (12 weeks old; all males). The animals were kept in numbers of 4 per cage. The animals were infected by Rausher leukemia virus (10^5 infectious particles (viruses) per animal in a volume of 0.2 ml) by intraperitoneal injection (ip) followed by subcutaneous injection of the test substance after 10 minutes. The animals were divided into two groups referred to as controls (receiving a sham injection of saline) or test animals (receiving the melittin analogue).
The peptide was dissolved as 100 μg/ml and the controls as well as the test animals were injected with the same volume subcutaneously (0.1 ml) of PBS or PBS+test substance respectively. The injection was carried out 10 minutes after injection of the infectious virus. After 2 days the animals received a new injection of melittin analogue (10 μg/mg body weight) or PBS as a subcutaneous injection of 0.100 ml. After 4 days from the first injection a third injection was performed using 20 μg/mg body weight of melittin analogue.

Substance	inhibition of viral cell (HIV) release from infected cells, in words [1]	inhibition of growth / survival of infected cells, in words [2]	overall effect, in words [1]	other results
Gly-Ile-Gly-Ala-Val-Leu-Lys-Val-Leu-Thr-Thr-Gly-Leu-Pro-Ala-Leu-Ile-Ser-Trp-Ile-Gly-Gly-Gly-Gly-Gly-Gly [melittin (1-20)-6-(Gly)-Amide]	inhibited HIV release	inhibited the growth of infected cells	–	animals with spleens greater than 150 mg but lower than 170 mg (borderline) [3]: 25%; infected animals that do not develop disease [3]: 75%; number of animals with pathological spleen [3]: one; spleen weight of the rest of the test group [3]: 100 to 150 mg
MHC: MHC (Seq. ID NO:10), (MAJOR histocompatibility complex sequence) (VAAKANRVADEIRHKREKLE) [reference compound]	–	–	do not have any readily apparent effects	–
Melittin COOH: Melittin COOH was tested and appeared to be less efficient than the melittin amid	–	–	–	efficiency compared with melittin amid [1]: less efficient than the melittin amid
control peptide: HOLST peptide (negative control); no apparent structural similarity to melittin (FAESGVDTPVFNSY) [reference compound]	–	–	without effect	–
mastoparan [reference compound]	–	–	do not have any readily apparent effects	–
melittin 1-20: melittin 1-20 (Seq. ID NO:7) lacks the cell binding part of the molecule	inhibited HIV release as did the natural melittin and melittin (1-20)-6-(Gly)-Amide	inhibited the growth of infected cells	–	–
